# Laboratory results from PubChem BioAssay AID2060890 (Molecular Pharmacology Branch, DTP, NCI, 2025).
# System: LG0703-F948-PDC complex spheroid viability
# Test: Anticancer human tumor LG0703-F948-PDC patient-derived lung adenocarcinoma cell line growth inhibition [RAS]
# Settings: for IC50: curve of first compound; for viability, T/C: stronger effect = lower value
# Summary of the method: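 Tumour cells grown as complex spheroids with HUVEC endothelial cells and mesenchymal stem cells, treated with RAS pathway inhibitor combinations. Each agent spans half-log steps from near clinical Cmax, or 10 microM where Cmax is unknown.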
# 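Note: spheroids exposed to agents for 7 days.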
# 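Throughout, for viability, T/C: 100% = DMSO vehicle wells.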
smiles,measurement,setting,value
Nc1ccn(C2OC(CO)C(O)C2(F)F)c(=O)n1 (configuration not stated) + CCn1c(-c2cccnc2C(C)OC)c2c3cc(ccc31)N1CCOC(CC(NC(=O)C(C(C)C)N(C)C(=O)C3(F)CCN(C(=O)C#CC(C)(C)N(C)C)CC3)C(=O)N3CCCC(N3)C(=O)OCC(C)(C)C2)C1,IC50,second compound 0.000949 µM,7.67 nM
same,IC50,second compound 0.003 µM,9.28 nM
same,IC50,second compound 0.00949 µM,7.52 nM
same,IC50,second compound 0.03 µM,6.69 nM
same,IC50,second compound 0.0949 µM,< 3.16 nM
same,IC50,second compound 0.3 µM,< 3.16 nM
same,"viability, T/C","second compound 0.000949 µM, first compound 0.00316 µM",79.2%
same,"viability, T/C","second compound 0.000949 µM, first compound 0.01 µM",40.2%
same,"viability, T/C","second compound 0.000949 µM, first compound 0.0316 µM",36.9%
same,"viability, T/C","second compound 0.000949 µM, first compound 0.1 µM",32%
same,"viability, T/C","second compound 0.000949 µM, first compound 0.316 µM",32%
same,"viability, T/C","second compound 0.000949 µM, first compound 1 µM",30%
same,"viability, T/C","second compound 0.003 µM, first compound 0.00316 µM",76.2%
same,"viability, T/C","second compound 0.003 µM, first compound 0.01 µM",48.3%
same,"viability, T/C","second compound 0.003 µM, first compound 0.0316 µM",38.9%
same,"viability, T/C","second compound 0.003 µM, first compound 0.1 µM",29.8%
same,"viability, T/C","second compound 0.003 µM, first compound 0.316 µM",38.9%
same,"viability, T/C","second compound 0.003 µM, first compound 1 µM",31.3%
same,"viability, T/C","second compound 0.00949 µM, first compound 0.00316 µM",70.7%
same,"viability, T/C","second compound 0.00949 µM, first compound 0.01 µM",43.2%
same,"viability, T/C","second compound 0.00949 µM, first compound 0.0316 µM",38%
same,"viability, T/C","second compound 0.00949 µM, first compound 0.1 µM",36.9%
same,"viability, T/C","second compound 0.00949 µM, first compound 0.316 µM",43.9%
same,"viability, T/C","second compound 0.00949 µM, first compound 1 µM",30.9%
same,"viability, T/C","second compound 0.03 µM, first compound 0.00316 µM",66%
same,"viability, T/C","second compound 0.03 µM, first compound 0.01 µM",41.4%
same,"viability, T/C","second compound 0.03 µM, first compound 0.0316 µM",34%
same,"viability, T/C","second compound 0.03 µM, first compound 0.1 µM",30%
same,"viability, T/C","second compound 0.03 µM, first compound 0.316 µM",34.7%
same,"viability, T/C","second compound 0.03 µM, first compound 1 µM",28.9%
same,"viability, T/C","second compound 0.0949 µM, first compound 0.00316 µM",49.3%
same,"viability, T/C","second compound 0.0949 µM, first compound 0.01 µM",33.2%
same,"viability, T/C","second compound 0.0949 µM, first compound 0.0316 µM",26.7%
same,"viability, T/C","second compound 0.0949 µM, first compound 0.1 µM",30%
same,"viability, T/C","second compound 0.0949 µM, first compound 0.316 µM",27.8%
same,"viability, T/C","second compound 0.0949 µM, first compound 1 µM",22.2%
same,"viability, T/C","second compound 0.3 µM, first compound 0.00316 µM",31.7%
same,"viability, T/C","second compound 0.3 µM, first compound 0.01 µM",22.4%
same,"viability, T/C","second compound 0.3 µM, first compound 0.0316 µM",27.9%
same,"viability, T/C","second compound 0.3 µM, first compound 0.1 µM",27.2%
same,"viability, T/C","second compound 0.3 µM, first compound 0.316 µM",31.4%
same,"viability, T/C","second compound 0.3 µM, first compound 1 µM",19.4%
CCC(CC)c1cc(NC2CCC(N)C2)n2nccc2n1 (configuration not stated) + C#Cc1c(F)ccc2cc(O)cc(-c3ncc4c(N5CC6CCC(C5)N6)nc(OCC56CCCN5CC(F)C6)nc4c3F)c12,IC50,second compound 0.0316 µM,1150 nM
same,IC50,second compound 0.1 µM,1120 nM
same,IC50,second compound 0.316 µM,1350 nM
same,IC50,second compound 1 µM,936 nM
same,IC50,second compound 3.16 µM,456 nM
same,IC50,second compound 10 µM,35.1 nM
same,"viability, T/C","second compound 0.0316 µM, first compound 0.0316 µM",95%
same,"viability, T/C","second compound 0.0316 µM, first compound 0.1 µM",80.1%
same,"viability, T/C","second compound 0.0316 µM, first compound 0.316 µM",83.9%
same,"viability, T/C","second compound 0.0316 µM, first compound 1 µM",56.7%
same,"viability, T/C","second compound 0.0316 µM, first compound 3.16 µM",2.63%
same,"viability, T/C","second compound 0.0316 µM, first compound 10 µM",0.05%
same,"viability, T/C","second compound 0.1 µM, first compound 0.0316 µM",97.5%
same,"viability, T/C","second compound 0.1 µM, first compound 0.1 µM",80.8%
same,"viability, T/C","second compound 0.1 µM, first compound 0.316 µM",87.7%
same,"viability, T/C","second compound 0.1 µM, first compound 1 µM",55.1%
same,"viability, T/C","second compound 0.1 µM, first compound 3.16 µM",2.53%
same,"viability, T/C","second compound 0.1 µM, first compound 10 µM",0.22%
same,"viability, T/C","second compound 0.316 µM, first compound 0.0316 µM",81.2%
same,"viability, T/C","second compound 0.316 µM, first compound 0.1 µM",68%
same,"viability, T/C","second compound 0.316 µM, first compound 0.316 µM",73.4%
same,"viability, T/C","second compound 0.316 µM, first compound 1 µM",66.5%
same,"viability, T/C","second compound 0.316 µM, first compound 3.16 µM",3.15%
same,"viability, T/C","second compound 0.316 µM, first compound 10 µM",0.1%
same,"viability, T/C","second compound 1 µM, first compound 0.0316 µM",73.4%
same,"viability, T/C","second compound 1 µM, first compound 0.1 µM",69.8%
same,"viability, T/C","second compound 1 µM, first compound 0.316 µM",65.1%
same,"viability, T/C","second compound 1 µM, first compound 1 µM",49.3%
same,"viability, T/C","second compound 1 µM, first compound 3.16 µM",2.65%
same,"viability, T/C","second compound 1 µM, first compound 10 µM",0.06%
same,"viability, T/C","second compound 3.16 µM, first compound 0.0316 µM",64%
same,"viability, T/C","second compound 3.16 µM, first compound 0.1 µM",55.3%
same,"viability, T/C","second compound 3.16 µM, first compound 0.316 µM",56.7%
same,"viability, T/C","second compound 3.16 µM, first compound 1 µM",33.8%
same,"viability, T/C","second compound 3.16 µM, first compound 3.16 µM",1.79%
same,"viability, T/C","second compound 3.16 µM, first compound 10 µM",0.56%
same,"viability, T/C","second compound 10 µM, first compound 0.0316 µM",45%
same,"viability, T/C","second compound 10 µM, first compound 0.1 µM",56%
same,"viability, T/C","second compound 10 µM, first compound 0.316 µM",31.7%
same,"viability, T/C","second compound 10 µM, first compound 1 µM",19%
same,"viability, T/C","second compound 10 µM, first compound 3.16 µM",0.77%
same,"viability, T/C","second compound 10 µM, first compound 10 µM",0.53%
CCc1c2c(nc3ccc(O)cc13)-c1cc3c(c(=O)n1C2)COC(=O)[C@]3(O)CC,"viability, T/C",compound 0.003 µM,98.3% [middle of 4 runs]
same,"viability, T/C",compound 0.03 µM,65.8% [middle of 4 runs]
same,"viability, T/C",compound 0.3 µM,31.6% [middle of 4 runs]
